From the NIST ThermoML archive (doi:10.1016/j.jct.2017.09.005)
Numbers after ± are expanded uncertainties.

Tests used:
[1] = for vapor or sublimation pressure: Twin ebulliometer; for molar entropy: 101.33 kPa, Small sample (50 mg) DSC; for Critical density: DSC; for Critical temperature: DTA
[2] = molar heat capacity at saturation pressure; conditions: Liquid, Small sample (50 mg) DSC
[3] = 323.14 K, Liquid, Vibrating tube method
[4] = 348.13 K, Liquid, Vibrating tube method
[5] = 373.12 K, Liquid, Vibrating tube method
[6] = 398.12 K, Liquid, Vibrating tube method
[7] = 423.11 K, Liquid, Vibrating tube method
[8] = 448.11 K, Liquid, Vibrating tube method

Cc1ccc(C)[nH]1 [2,5-dimethyl-1H-pyrrole]
mass density [1, 3]: 910.8 ± 1.8 kg/m3 | vapor or sublimation pressure ([1]; 341.46 K, Liquid): 1.997 ± 0.008 kPa | mass density [1, 4]: 890.3 ± 1.8 kg/m3 | vapor or sublimation pressure ([1]; 354.8 K, Liquid): 3.994 ± 0.008 kPa | vapor or sublimation pressure ([1]; 360.76 K, Liquid): 5.333 ± 0.008 kPa | vapor or sublimation pressure ([1]; 369.58 K, Liquid): 8.007 ± 0.008 kPa | mass density [1, 5]: 867.7 ± 1.7 kg/m3 | vapor or sublimation pressure ([1]; 376.17 K, Liquid): 10.67 ± 0.009 kPa | molar entropy ([1]; 380 K, Liquid): 263.56 ± 6.1 J/K/mol | vapor or sublimation pressure ([1]; 381.49 K, Liquid): 13.34 ± 0.009 kPa | vapor or sublimation pressure ([1]; 386.98 K, Liquid): 16.66 ± 0.01 kPa | vapor or sublimation pressure ([1]; 391.56 K, Liquid): 19.93 ± 0.011 kPa | vapor or sublimation pressure ([1]; 397.58 K, Liquid): 25.02 ± 0.012 kPa | mass density [1, 6]: 843.9 ± 1.7 kg/m3 | molar entropy ([1]; 400 K, Liquid): 275.4 ± 6.4 J/K/mol | vapor or sublimation pressure ([1]; 403.63 K, Liquid): 31.18 ± 0.014 kPa | vapor or sublimation pressure ([1]; 409.71 K, Liquid): 38.56 ± 0.016 kPa | vapor or sublimation pressure ([1]; 415.81 K, Liquid): 47.35 ± 0.019 kPa | molar entropy ([1]; 420 K, Liquid): 286.97 ± 6.7 J/K/mol | vapor or sublimation pressure ([1]; 421.96 K, Liquid): 57.8 ± 0.022 kPa | mass density [1, 7]: 819.6 ± 1.6 kg/m3 | vapor or sublimation pressure ([1]; 428.14 K, Liquid): 70.1 ± 0.025 kPa | vapor or sublimation pressure ([1]; 434.36 K, Liquid): 84.53 ± 0.029 kPa | molar entropy ([1]; 440 K, Liquid): 298.28 ± 6.9 J/K/mol | vapor or sublimation pressure ([1]; 440.62 K, Liquid): 101.35 ± 0.034 kPa | vapor or sublimation pressure ([1]; 446.89 K, Liquid): 120.78 ± 0.04 kPa | mass density [1, 8]: 793.5 ± 1.6 kg/m3 | vapor or sublimation pressure ([1]; 453.2 K, Liquid): 143.21 ± 0.04 kPa | vapor or sublimation pressure ([1]; 459.55 K, Liquid): 169.03 ± 0.05 kPa | molar entropy ([1]; 460 K, Liquid): 309.34 ± 7.2 J/K/mol | vapor or sublimation pressure ([1]; 465.94 K, Liquid): 198.49 ± 0.06 kPa | vapor or sublimation pressure ([1]; 472.36 K, Liquid): 232.03 ± 0.07 kPa | mass density ([1]; 473.11 K, Liquid, Vibrating tube method): 766.5 ± 1.5 kg/m3 | vapor or sublimation pressure ([1]; 478.82 K, Liquid): 270.08 ± 0.08 kPa | molar entropy ([1]; 480 K, Liquid): 320.16 ± 7.4 J/K/mol | mass density ([1]; 498.11 K, Liquid, Vibrating tube method): 738.1 ± 1.5 kg/m3 | molar entropy ([1]; 500 K, Liquid): 330.75 ± 7.7 J/K/mol | mass density ([1]; 508.11 K, Liquid, Vibrating tube method): 725.6 ± 1.5 kg/m3 | molar entropy ([1]; 520 K, Liquid): 341.13 ± 7.9 J/K/mol | molar entropy ([1]; 540 K, Liquid): 351.34 ± 8.2 J/K/mol | molar entropy ([1]; 560 K, Liquid): 361.4 ± 8.4 J/K/mol | molar entropy ([1]; 580 K, Liquid): 371.4 ± 8.6 J/K/mol | molar entropy ([1]; 600 K, Liquid): 381.43 ± 8.9 J/K/mol | mass density ([1]; 650 K, Gas, From heat capacities measured by DSC): 144 ± 14 kg/m3 | mass density ([1]; 660.8 K, Gas, From heat capacities measured by DSC): 257 ± 26 kg/m3 | mass density ([1]; 661.5 K, Liquid, From heat capacities measured by DSC): 334 ± 33 kg/m3 | mass density ([1]; 661.7 K, Liquid, From heat capacities measured by DSC): 299 ± 30 kg/m3 | Critical density ([1]; Liquid): 288.6 ± 29 kg/m3 | Critical temperature ([1]; Liquid): 662 ± 2 K | molar heat capacity ([2]; 380 K): 227.58 ± 3.9 J/K/mol | molar heat capacity ([2]; 400 K): 234.06 ± 4.1 J/K/mol | molar heat capacity ([2]; 420 K): 240.2 ± 4.2 J/K/mol | molar heat capacity ([2]; 440 K): 246 ± 4.3 J/K/mol | molar heat capacity ([2]; 460 K): 251.53 ± 4.4 J/K/mol | molar heat capacity ([2]; 480 K): 256.87 ± 4.4 J/K/mol | molar heat capacity ([2]; 500 K): 262.15 ± 4.5 J/K/mol | molar heat capacity ([2]; 520 K): 267.56 ± 4.6 J/K/mol | molar heat capacity ([2]; 540 K): 273.45 ± 4.7 J/K/mol | molar heat capacity ([2]; 560 K): 280.39 ± 4.9 J/K/mol | molar heat capacity ([2]; 580 K): 289.72 ± 5 J/K/mol | molar heat capacity ([2]; 600 K): 303.59 ± 5.3 J/K/mol

Cn1cccc1 [N-methylpyrrole]
mass density [1, 3]: 879.5 ± 1.8 kg/m3 | mass density [1, 4]: 854.2 ± 1.7 kg/m3 | molar entropy ([1]; 360 K, Liquid): 230.1 ± 5.3 J/K/mol | mass density [1, 5]: 828.2 ± 1.7 kg/m3 | molar entropy ([1]; 380 K, Liquid): 239.15 ± 5.6 J/K/mol | mass density [1, 6]: 800.7 ± 1.6 kg/m3 | molar entropy ([1]; 400 K, Liquid): 248.02 ± 5.8 J/K/mol | molar entropy ([1]; 420 K, Liquid): 256.74 ± 6 J/K/mol | mass density [1, 7]: 772.1 ± 1.5 kg/m3 | molar entropy ([1]; 440 K, Liquid): 265.36 ± 6.2 J/K/mol | mass density [1, 8]: 741.1 ± 1.5 kg/m3 | molar entropy ([1]; 460 K, Liquid): 273.88 ± 6.4 J/K/mol | molar entropy ([1]; 480 K, Liquid): 282.3 ± 6.6 J/K/mol | molar entropy ([1]; 500 K, Liquid): 290.66 ± 6.8 J/K/mol | molar entropy ([1]; 520 K, Liquid): 298.96 ± 7 J/K/mol | mass density ([1]; 582.9 K, Gas, From heat capacities measured by DSC): 137 ± 14 kg/m3 | mass density ([1]; 592 K, Gas, From heat capacities measured by DSC): 201 ± 20 kg/m3 | mass density ([1]; 592.7 K, Gas, From heat capacities measured by DSC): 220 ± 22 kg/m3 | mass density ([1]; 593.2 K, Liquid, From heat capacities measured by DSC): 382 ± 38 kg/m3 | mass density ([1]; 596.1 K, Gas, From heat capacities measured by DSC): 257 ± 26 kg/m3 | mass density ([1]; 596.2 K, Liquid, From heat capacities measured by DSC): 328 ± 33 kg/m3 | mass density ([1]; 596.5 K, Liquid, From heat capacities measured by DSC): 337 ± 34 kg/m3 | Critical density ([1]; Liquid): 299.8 ± 30 kg/m3 | Critical temperature ([1]; Liquid): 597 ± 2 K | molar heat capacity ([2]; 360 K): 164.66 ± 2.9 J/K/mol | molar heat capacity ([2]; 380 K): 170.08 ± 2.9 J/K/mol | molar heat capacity ([2]; 400 K): 175.89 ± 3 J/K/mol | molar heat capacity ([2]; 420 K): 182.02 ± 3.2 J/K/mol | molar heat capacity ([2]; 440 K): 188.36 ± 3.3 J/K/mol | molar heat capacity ([2]; 460 K): 194.81 ± 3.4 J/K/mol | molar heat capacity ([2]; 480 K): 201.34 ± 3.5 J/K/mol | molar heat capacity ([2]; 500 K): 208.14 ± 3.6 J/K/mol | molar heat capacity ([2]; 520 K): 215.72 ± 3.7 J/K/mol
